Holding throughout (type): cell-based
In one assay the target is T1, Bcl-xL (Homo sapiens, UniProt Q07817).
T1 construct: Measured levels of Bcl-xL protein of HCT116 cells treated with the tested compounds; host or cells: HCT116
Description: HCT116 Bcl-xL degradation, capillary-based immunoassay (WES). As to conditions: HCT116, 24 h, 9-point serial dilution. The method in brief: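 HCT116 cells treated 24 h with compound at 10/100 nM and/or 9-point dilution (quadruplicates), then lysed. Bcl-xL measured by capillary WES immunoassay, normalized to cofilin and expressed as % of untreated cells. DC50 from four-parameter curve fit.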

For assay [1], the system named is EBC-1 lung cancer cell line. Put plainly: EBC-1 cell proliferation, CellTiter-Glo assay. As to conditions: Homo sapiens, 120 h; Ebc-1 cell viability, CTG assay, 5 days of treatment; read-out: CTG 5 day Ebc1 GI50. The method in brief: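 EBC-1 cells seeded at 1000 per well overnight, then exposed to 10-point dilutions (0.508 nM–10 μM final) for 5 days at 37 °C, in triplicate. ATP luminescence by CellTiter-Glo, normalised to untreated wells; GI50 from four-parameter logistic fit, runs valid only with at least one doubling.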
On the technique in general: Cellular ATP, detected with luciferase, serves as a proxy for viable cell number.

Another assay has as its system MOLT-4 cells. Put plainly: MOLT-4 cell viability, CTG assay. To be noted: Homo sapiens, MOLT-4, 48 h. The method in brief:
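Cells grown in RPMI 1640 with 10% FBS at 37° C, 5% CO2, then exposed to compounds for 48 h (11-point 5-fold dilution, triplicates). ATP measured by CellTiter-Glo luminescence; IC50 from four-parameter fit versus control, mean of ≥2 independent experiments.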

Another assay deals with T2, HiBiT-tagged BCL-xL (Homo sapiens, UniProt Q07817).
T2 construct: expressed in transfected cells; host or cells: NCI-H1650 (ATCC No. CRL-5883), engineered HiBiT cell line
T2 sequence (Q07817 whole entry): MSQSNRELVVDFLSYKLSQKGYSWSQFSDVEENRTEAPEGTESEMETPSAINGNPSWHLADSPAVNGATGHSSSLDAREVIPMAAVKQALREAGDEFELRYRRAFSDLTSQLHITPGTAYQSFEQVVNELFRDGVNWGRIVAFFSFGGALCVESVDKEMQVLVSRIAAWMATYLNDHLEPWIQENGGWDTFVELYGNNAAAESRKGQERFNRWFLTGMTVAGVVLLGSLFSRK
Put plainly: NCI-H1650 BCL-xL protein levels, Nano-Glo HiBiT Lytic Detection. As to conditions: NCI-H1650 expressing HiBiT-tagged BCL-xL, overnight incubation, read-out: Bcl-xl HIBIT NCIH1650 DC50. The essentials:
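NCI-H1650 cells expressing HiBiT-tagged BCL-xL (5000/well) were treated overnight at 37° C with 10 concentrations, final 0.508 nM-10 μM, in triplicate. Remaining BCL-xL measured by Nano-Glo HiBiT lytic luminescence, normalized to untreated cells; 50% values by four-parameter logistic fit.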

T1 sequence (Q07817 whole entry): as above

By GI50 is commonly meant the concentration that inhibits growth by half. In general, IC50 refers to the midpoint of a concentration-inhibition curve. Read a high IC50 as weaker potency. In the case of `Cc1ncsc1-c1ccc(CNC(=O)[C@@H]2C[C@@H](O)CN2C(=O)[C@@H](NC(=O)C2(F)CC2)C(C)(C)C)c(OCCCCCCCCCCN(C)CCOC23CC4(C)CC(C)(CC(Cn5ncc(-c6ccc(N7CCCc8c7nnc(Nc7nc9ccccc9s7)c8C)nc6C(=O)O)c5C)(C4)C2)C3)c1` [Example 73, 6-[3-(1,3-benzothiazol-2-ylamino)-4-methyl-6,7-dihydro-5H-pyrido[2,3-c]pyridazin-8-yl]-3-[1-[[3-[2-[10-[2-[[[(2S,4R)-1-[(2S)-2-[(1-fluorocyclopropanecarbonyl)amino]-3,3-dimethyl-butanoyl]-4-hydroxy-pyrrolidine-2-carbonyl]amino]methyl]-5-(4-methylthiazol-5-yl)phenoxy]decyl-methyl-amino]ethoxy]-5,7-dimethyl-1-adamantyl]methyl]-5-methyl-pyrazol-4-yl]pyridine-2-carboxylic acid], the DC50 on Bcl-xL turned out to be 7.69 nM; at HiBiT-tagged BCL-xL, 13 nM. Moreover, the concentration for 50% growth inhibition (GI50) in assay [1] turned out to be 186 nM. The compound also showed a concentration for half-maximal inhibition (IC50) in the assay with MOLT-4 cells of 24 nM.

Take `Cc1ncsc1-c1ccc(CNC(=O)[C@@H]2C[C@@H](O)CN2C(=O)[C@@H](NC(=O)C2(F)CC2)C(C)(C)SCCCCCCCCCCCN(C)CCOC23CC4(C)CC(C)(CC(Cn5ncc(-c6ccc(N7CCCc8c7nnc(Nc7nc9ccccc9s7)c8C)nc6C(=O)O)c5C)(C4)C2)C3)cc1` [Example 117, 6-[3-(1,3-benzothiazol-2-ylamino)-4-methyl-6,7-dihydro-5H-pyrido[2,3-c]pyridazin-8-yl]-3-[1-[[3-[2-[11-[(2R)-2-[(1-fluorocyclopropanecarbonyl)amino]-3-[(2S,4R)-4-hydroxy-2-[[4-(4-methylthiazol-5-yl)phenyl]methylcarbamoyl]pyrrolidin-1-yl]-1,1-dimethyl-3-oxo-propyl]sulfanylundecyl-methyl-amino]ethoxy]-5,7-dimethyl-1-adamantyl]methyl]-5-methyl-pyrazol-4-yl]pyridine-2-carboxylic acid]: the DC50 at Bcl-xL was 1.17 nM; on HiBiT-tagged BCL-xL, greater than 1670 nM. In assay [1], the GI50 was found to be 89 nM. Moreover, half-maximal inhibition in the assay on MOLT-4 cells (IC50) required 8.25 nM.

As to `Cc1ncsc1-c1ccc(CNC(=O)[C@@H]2C[C@@H](O)CN2C(=O)[C@@H](NC(=O)C2(F)CC2)C(C)(C)C)c(OCCCCCCCCCN(C)CCOC23CC4(C)CC(C)(CC(Cn5ncc(-c6ccc(N7CCCc8c7nnc(Nc7nc9ccccc9s7)c8C)nc6C(=O)O)c5C)(C4)C2)C3)c1` [Example 72, 6-[3-(1,3-benzothiazol-2-ylamino)-4-methyl-6,7-dihydro-5H-pyrido[2,3-c]pyridazin-8-yl]-3-[1-[[3-[2-[9-[2-[[[(2S,4R)-1-[(2S)-2-[(1-fluorocyclopropanecarbonyl)amino]-3,3-dimethyl-butanoyl]-4-hydroxy-pyrrolidine-2-carbonyl]amino]methyl]-5-(4-methylthiazol-5-yl)phenoxy]nonyl-methyl-amino]ethoxy]-5,7-dimethyl-1-adamantyl]methyl]-5-methyl-pyrazol-4-yl]pyridine-2-carboxylic acid], the DC50 at Bcl-xL was 13.3 nM; at HiBiT-tagged BCL-xL it was greater than 1670 nM. Also, the 50% growth inhibitory concentration (GI50) in assay [1] was determined as 179 nM. Further, in the assay with MOLT-4 cells, the IC50 came out at 16.7 nM.

In the case of `Cc1ncsc1-c1ccc(CNC(=O)[C@@H]2C[C@@H](O)CN2C(=O)[C@@H](NC(=O)C2(F)CC2)C(C)(C)C)c(OCCCCCCCCCCCCCCN(C)CCOC23CC4(C)CC(C)(CC(Cn5ncc(-c6ccc(N7CCCc8c7nnc(Nc7nc9ccccc9s7)c8C)nc6C(=O)O)c5C)(C4)C2)C3)c1` [Example 146, 6-[3-(1,3-benzothiazol-2-ylamino)-4-methyl-6,7-dihydro-5H-pyrido[2,3-c]pyridazin-8-yl]-3-[1-[[3-[2-[14-[2-[[[(2S,4R)-1-[(2S)-2-[(1-fluorocyclopropanecarbonyl)amino]-3,3-dimethyl-butanoyl]-4-hydroxy-pyrrolidine-2-carbonyl]amino]methyl]-5-(4-methylthiazol-5-yl)phenoxy]tetradecyl-methyl-amino]ethoxy]-5,7-dimethyl-1-adamantyl]methyl]-5-methyl-pyrazol-4-yl]pyridine-2-carboxylic acid], the DC50 at Bcl-xL is 0.986 nM; on HiBiT-tagged BCL-xL, greater than 1670 nM. Also, the 50% growth inhibitory concentration (GI50) in assay [1] came to 3 nM. The same compound had a half-inhibitory concentration (IC50) with MOLT-4 cells of 3 nM.

Take `Cc1cc(N(CCCCN(C)C(=O)CCCCCCCCCCC(=O)N[C@H](C(=O)N2C[C@H](O)C[C@H]2C(=O)N[C@@H](C)c2ccc(-c3scnc3C)cc2)C(C)(C)C)c2ccc(-c3cnn(CC45CC6(C)CC(C)(C4)CC(OCCN(C)C)(C6)C5)c3C)c(C(=O)O)n2)nnc1Nc1nc2ccccc2s1` [Example 112, 6-[[6-(1,3-benzothiazol-2-ylamino)-5-methyl-pyridazin-3-yl]-[4-[[12-[[(1S)-1-[(2S,4R)-4-hydroxy-2-[[(1S)-1-[4-(4-methylthiazol-5-yl)phenyl]ethyl]carbamoyl]pyrrolidine-1-carbonyl]-2,2-dimethyl-propyl]amino]-12-oxo-dodecanoyl]-methyl-amino]butyl]amino]-3-[1-[[3-[2-(dimethylamino)ethoxy]-5,7-dimethyl-1-adamantyl]methyl]-5-methyl-pyrazol-4-yl]pyridine-2-carboxylic acid]: the DC50 on Bcl-xL is 0.495 nM; on HiBiT-tagged BCL-xL, 0.5 nM. Besides, the GI50 in assay [1] came to 437 nM. Further, inhibition in the assay with MOLT-4 cells was half-maximal at 15.7 nM (IC50).

Take `Cc1ncsc1-c1ccc(CNC(=O)[C@@H]2C[C@@H](O)CN2C(=O)[C@@H](NC(=O)C2(F)CC2)C(C)(C)SCCCCCCCCCCCCN(C)CCOC23CC4(C)CC(C)(CC(Cn5ncc(-c6ccc(N7CCCc8c7nnc(Nc7nc9ccccc9s7)c8C)nc6C(=O)O)c5C)(C4)C2)C3)cc1` [Example 79, 6-[3-(1,3-benzothiazol-2-ylamino)-4-methyl-6,7-dihydro-5H-pyrido[2,3-c]pyridazin-8-yl]-3-[1-[[3-[2-[12-[(2R)-2-[(1-fluorocyclopropanecarbonyl)amino]-3-[(2S,4R)-4-hydroxy-2-[[4-(4-methylthiazol-5-yl)phenyl]methylcarbamoyl]pyrrolidin-1-yl]-1,1-dimethyl-3-oxo-propyl]sulfanyldodecyl-methyl-amino]ethoxy]-5,7-dimethyl-1-adamantyl]methyl]-5-methyl-pyrazol-4-yl]pyridine-2-carboxylic acid]: the DC50 was 0.399 nM on Bcl-xL and greater than 1670 nM at HiBiT-tagged BCL-xL. In addition, in assay [1], the GI50 came out at 66 nM. In the assay on MOLT-4 cells, this compound yielded a concentration for half-maximal inhibition (IC50) of 6.06 nM.

For `Cc1ncsc1-c1ccc([C@H](C)NC(=O)[C@@H]2C[C@@H](O)CN2C(=O)[C@@H](NC(=O)CCCCCCCCCCCCCN(C)CCOC23CC4(C)CC(C)(CC(Cn5ncc(-c6ccc(N7CCCc8c7nnc(Nc7nc9ccccc9s7)c8C)nc6C(N)=O)c5C)(C4)C2)C3)C(C)(C)C)cc1` [Example 154, 6-[3-(1,3-benzothiazol-2-ylamino)-4-methyl-6,7-dihydro-5H-pyrido[2,3-c]pyridazin-8-yl]-3-[1-[[3-[2-[[14-[[(1S)-1-[(2S,4R)-4-hydroxy-2-[[(1S)-1-[4-(4-methylthiazol-5-yl)phenyl]ethyl]carbamoyl]pyrrolidine-1-carbonyl]-2,2-dimethyl-propyl]amino]-14-oxo-tetradecyl]-methyl-amino]ethoxy]-5,7-dimethyl-1-adamantyl]methyl]-5-methyl-pyrazol-4-yl]pyridine-2-carboxamide], the DC50 at Bcl-xL was 10.3 nM; at HiBiT-tagged BCL-xL, greater than 1670 nM. Also, in assay [1], the GI50 was determined as 222 nM. In the assay with MOLT-4 cells, this compound came in with a half-maximal inhibitory concentration (IC50) of 6.59 nM.
